# Experiment: method code SF-HPLC, from DOI: 10.1016/0378-5173(94)00315-v
# Settings: pH 1.0
row,logD,SMILES
1,2.82,COc1ccc2cc(CC(=O)O)ccc2c1

# Same assay, conditions: pH 7.4
row,SMILES,logD
1,COc1ccc2cc(CC(=O)OCC(=O)NC3CCCCC3)ccc2c1,3.99
2,COc1ccc2cc(CC(=O)OCC(=O)N3CCCC3)ccc2c1,2.71
3,COc1ccc2cc(CC(=O)OCC(=O)NC(C)(C)C)ccc2c1,3.6
4,CCC(C)NC(=O)COC(=O)Cc1ccc2cc(OC)ccc2c1 (centres undefined),3.31
5,CCCCNC(=O)COC(=O)Cc1ccc2cc(OC)ccc2c1,3.57
6,CCCNC(=O)COC(=O)Cc1ccc2cc(OC)ccc2c1,3.1
7,COc1ccc2cc(CC(=O)OCC(=O)N3CCOCC3)ccc2c1,2.13
8,COc1ccc2cc(CC(=O)OCC(=O)NC(C)C)ccc2c1,2.89

# More lines, now with the values ahead:
row,logD,SMILES
1,1.41,COc1ccc2cc(CC(=O)OCC(=O)N(CCO)CCO)ccc2c1
2,2.23,COc1ccc2cc(CC(=O)OCC(=O)N(C)C)ccc2c1
3,4.04,CCCN(CCC)C(=O)COC(=O)Cc1ccc2cc(OC)ccc2c1
4,1.58,COc1ccc2cc(CC(=O)OCC(=O)N(C)CCO)ccc2c1
5,1.98,CCN(CCO)C(=O)COC(=O)Cc1ccc2cc(OC)ccc2c1
6,1.88,COc1ccc2cc(CC(=O)OCC(N)=O)ccc2c1
7,2.19,CNC(=O)COC(=O)Cc1ccc2cc(OC)ccc2c1
8,2.65,CCNC(=O)COC(=O)Cc1ccc2cc(OC)ccc2c1
9,3.67,C=CCN(CC=C)C(=O)COC(=O)Cc1ccc2cc(OC)ccc2c1
10,3.05,CCN(CC)C(=O)COC(=O)Cc1ccc2cc(OC)ccc2c1

# — the SangsterLogP compilation
